Values joined by “and” are separate entries in the source; they are usually repeats but may differ in a detail not shown here. Equal values may be shown once. “Also recorded” adds a separate entry of the source.
Key:
[1] = ref Krutz et al., Sadekar et al., Ponder et al., Karol et al., Hopkins et al.; cited from earlier work
[2] = Kinetic Gly-pNA chemoassay (second-order rate constant k Gly);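 further: Gly-pNA depletion followed over time by chromatographic peak area, with test compound in at least tenfold excess (pseudo-first-order), added from acetonitrile stock, at least three runs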
Procedure: The reactivity of the 27 test compounds toward Gly-pNA was quantified in terms of the second-order reaction rate constant k Gly using our Gly-pNA chemoassay. , In brief, stock solutions of the test compound were freshly obtained every day by gravimetrically adding the required amount into a 10 mL volumetric flask, which was subsequently filled to volume with acetonitrile (ACN). The required amounts of test compounds depended on their reactivity toward Gly-pNA. […] As usual for kinetic studies, fast reacting chemicals are applied at lower concentrations than little reactive candidates. All stock solutions were stored at 25 °C in a climate chamber before first use (ca. 30 min) and for repeating an experiment (max. 6 h). Gly-pNA stock solution (1.69 mM) was obtained by dissolving 3.3 mg Gly-pNA in 10 mL phosphate buffer solution (80 mM) and could be used for several weeks if stored at 4 °C. For all chemoassay experiments, 1.8 mL glass vials were used as reaction batches, which were initially filled with 1070 μL phosphate buffer (80 mM) and 30 μL Gly-pNA stock solution. To start the reaction, 400 μL of the test compound stock solutions was added. […] The time between the start of the reaction and the first analysis was measured with an electronic time clock. All reactions were performed under pseudo-1st order conditions with the electrophile being at least ten times in excess over Gly-pNA.
For these compounds, the minimum reactivity was estimated in terms of k Gly by plotting ln (A Gly ^ t /A Gly ^0) vs reaction time t (with A Gly ^ t and A Gly ^0 being the peak areas under the chromatographic signal for Gly-pNA at time t and at the beginning of the reaction (t = 0)). Linear regression through 0 (at t = 0) and the first measurement point yields slope s (see Figure S1) which is the pseudo-1st order rate constant k Gly ^pseudo that can be converted with the initial test compound concentration in the reactions mixture (c) into k Gly according to eq . 1 kGly=kGlypseudo/c
2 Ln(AGlyt/AGly0)≈−kGly·c·t+0.5·kGly·kloss·c·t^2 Here k loss is the first order rate constant covering all processes contributing to the loss of the test compounds, except the reaction with Gly-pNA. The regression parameter of the linear part of eq (= k Gly·c) is the pseudo-1st order rate constant k Gly ^pseudo and can be converted into k Gly according to eq (see above).
Linear regression of these plots provides slope s, which is again the pseudo-1st order rate constant, k Gly ^pseudo, and can be used to calculate k Gly according to eq . All experiments to determine k Gly have been conducted at least three times.

[3] = DPRA-like chemoassay with Lys-pNA (24 h percent depletion); conditions: 25 °C, 50-fold excess of test compound
Procedure: (§1) In addition to the kinetic Gly-pNA chemoassay, the reactivity of the 27 compounds toward Gly-pNA and Lys-pNA was determined in terms of percentage depletions after reacting for 24 h at 25 °C employing the following DPRA-like setup: stock solutions for the test compounds were prepared by gravimetrically adding at least 3 mg of the respective compound into a glass vial (total volume 1.8 mL) and subsequent addition of 1 mL ACN. […] The stock solutions for Gly-pNA and Lys-pNA with a final concentration of 1.7 mM were prepared by dissolving the required amount in one of the three aqueous buffer solutions used for this DPRA-like chemoassay: phosphate buffer (80 mM, pH 7.4), phosphate buffer (80 mM, pH 10.2), and ammonium acetate buffer (100 mM, pH 10.2). Glass vials (1.8 mL) were used as reaction vessels.
(§2) In the final reaction mixtures, the concentration of Gly-pNA or Lys-pNA was 0.03 mM, and the test compound was 50 times in excess (1.5 mM). After incubation for 24 h at 25 °C, the free amount of either Gly-pNA or Lys-pNA was determined using the HPLC UV–vis method described for the kinetic Gly-pNA chemoassay. , The percentage depletion of Gly-pNA (D Gly) or Lys-pNA (D Lys) was determined directly from peak areas according to eq 3 Dx[%]=(Axcontrol−Ax/Axcontrol×100)withx=GlyorLys
(§3) In eq , A x and A x ^control are the peak areas of the chromatographic signal of either Gly-pNA (x = Gly) or Lys-pNA (x = Lys) at 315 nm after 24 h incubation with and without test compound, respectively.
(§4) Summary of experimental conditions of the DPRA-like setups used to determine
(§5) DGly, D Lys, and D DPRA data in Table 2 (main text).
(§6) Table S2. Overview of experimental conditions for the DPRA-like setups used to
(§7) determine 24 h percentage depletion rates for the reaction of the test compounds with
(§8) Gly-pNA, Lys-pNA, and the DPRA lysine peptide (literature data).

[4] = DPRA-like chemoassay with Gly-pNA (24 h percent depletion); conditions: PPB pH 7.4, 24 h, 25 °C, 50-fold excess of test compound
Procedure: as §1, §2, §3, §4, §5, §6, §7, §8

[5] = Stability assessment of test compounds in aqueous buffers (half-lives)
Procedure: To this end, the test compound was dissolved in 1 mL ACN in a glass vial. […] As reaction batches, 1.8 mL glass vials equipped with 400 μL glass inserts were used and filled with 220 μL of the respective aqueous buffer and 80 μL of the test compound stock solution. The depletion of the test compounds was recorded with the HPLC UV–vis instrument used for the kinetic Gly-pNA chemoassay. , Chromatographic separation of the reaction mixture was achieved using the gradient described for the Gly-pNA chemoassay previously , and an isocratic HPLC method (water/ACN 70:30, both with 0.1 vol % formic acid). The wavelengths used for the detection of the compound and the information on the used chromatographic method are given in the Supporting Information in Table S3.

DPRA lysine peptide = system: DPRA lysine peptide; set-up: method as in literature; conditions: AAB pH 10.2, 24 h; ref literature; cited from earlier work
[6] = reaction with Gly-pNA, phosphate buffer 80 mM, 25 °C, nominal test compound concentration, ≥ values are minimum reactivity
[7] = reaction with Gly-pNA, phosphate buffer, nominal test compound concentration
[8] = AAB (ammonium acetate buffer) pH 10.2, 24 h
[9] = aqueous ammonium acetate buffer with acetonitrile, pH 10.2
[10] = buffer, pH 7.4, half-lives t 1/2 ± s(t 1/2), PPB (phosphate buffer 80 mM) pH 7.4
[11] = buffer, pH 10.2, half-lives t 1/2 ± s(t 1/2), AAP (ammonium acetate buffer 100 mM) pH 10.2
[12] = buffer, pH 10.2, half-lives t 1/2 ± s(t 1/2), PPB (phosphate buffer 80 mM) pH 10.2
[13] = PPB (phosphate buffer 80 mM) pH 7.4
[14] = PPB (phosphate buffer 80 mM) pH 10.2
[15] = determined using the free (not bound by water) fraction of F1

| SMILES | Classification as potential respiratory sensitizer or non-sensitizer [1] | k Gly ± s(k Gly), second-order rate constant [2, 6] [L mol^–1 min^–1] | log k Gly [2, 7] | D Lys ± s(D Lys), 24 h percent depletion of Lys-pNA [3, 8] | D Lys ± s(D Lys), 24 h percent depletion of Lys-pNA ([3]; PPB pH 10.2, 24 h) | D Gly ± s(D Gly), 24 h percent depletion of Gly-pNA [4] | half-life [5, 10] [min] | half-life [5, 11] [min] | half-life [5, 12] [min] | D DPRA ± s(D DPRA), depletion of the DPRA lysine peptide (DPRA lysine peptide) [%] | half-lives t 1/2 ± s(t 1/2) [5, 13] | other results |
| --- | --- | --- | --- | --- | --- | --- | --- | --- | --- | --- | --- | --- |
| O=C1OC(=O)C2C3C=CC(C3)C12 (centres unmarked) [C5, himic anhydride] | potential respiratory sensitizer | 4126 ± 114 | 3.62 | 29.6 ± 0.3% | 98.9 ± 0.1% | 100% |  |  |  |  |  | k Gly ± s(k Gly), second-order rate constant ([2]; reaction with Gly-pNA, phosphate buffer 80 mM, 25 °C, nominal test compound concentration, ≥ values are minimum reactivity, listed as himic anhydride): 4126 L mol^–1 min^–1; half-life [5, 9]: < 1 min; half-life ([5]; aqueous phosphate buffer with acetonitrile, pH 7.4): 6.79 ± 0.13 min; half-life ([5]; aqueous phosphate buffer with acetonitrile, pH 10.2): 1.3 ± 0.41 min |
| CC12CC=CCC1C(=O)OC2=O (centres unmarked) [D2, methyltetrahydrophthalic anhydride] | potential respiratory sensitizer | 2051 ± 32 | 3.31 | 18.0 ± 0.9% | 100% | 100% | 2.24 ± 0.03 | < 1 | < 1 |  |  |  |
| O=C=Nc1cccc2c(N=C=O)cccc12 [A2, 1,5-naphthalene diisocyanate] | potential respiratory sensitizer | ≥24928 ± 12821 | ≥4.40 | 19.9 ± 3.7% | 100% | 100% | 3.6 ± 1.6 | < 1 | 2.6 ± 1.1 |  |  |  |
| Cc1ccc(S(=O)(=O)NCl)cc1 [G2, chloramine T] |  | 41.9 ± 0.2 | 1.62 | 23.9 ± 1.6% | 53.8 ± 2.9% | 100% |  |  |  | 80.8 ± 30.7 | no depletion | half-lives t 1/2 ± s(t 1/2) [5, 14]: no depletion; half-life [5, 9]: 58.5 ± 1.3 min |
| Cc1ccc(N=C=O)cc1N=C=O [A1, 2,4-Toluene diisocyanate] |  | ≥33484 ± 803 |  | 18.8 ± 0.6% | 100% | 100% |  |  |  | 22.0 ± 1.4 |  | half-life ([5]; buffer, pH 7.4, half-lives t 1/2 ± s(t 1/2)): < 1 min; half-life ([5]; buffer, pH 10.2, half-lives t 1/2 ± s(t 1/2)): < 1 min |
| O=[N+]([O-])c1ccc(F)c([N+](=O)[O-])c1 [E3, 1-fluoro-2,4-dinitrobenzene] | non-sensitizer | 3.95 ± 0.07 | 0.6 | 84.0 ± 3.3% | 100% | 72.7% and 72.7 ± 0.7% |  | 73.2 ± 9.7 | 615 ± 31 |  | no depletion |  |
| O=[N+]([O-])c1ccc(S(=O)(=O)Cl)c([N+](=O)[O-])c1 [E1, 2,4-dinitrobenzenesulfonyl chloride] |  |  |  | 13.4% and 13.4 ± 0.8% | 62.6% and 62.6 ± 4.2% | 56.1% and 56.1 ± 0.5% | < 1 | < 1 | < 1 |  |  |  |
| O=C1C=CC(=O)O1 [C4, maleic anhydride] |  | ≥5930 ± 160 | 3.77 | 12.0 ± 1.1% | 100% | 100% | 35.3 ± 1.3 | < 1 | 2.7 | 54.0 ± 25.5 |  |  |
| O=[N+]([O-])c1ccc(Cl)c([N+](=O)[O-])c1 [E4, 1-chloro-2,4-dinitrobenzene] | non-sensitizer |  | –2.20 | 5.0 ± 0.7% | 8.1 ± 0.5% |  |  |  |  | 21.1 ± 16.3 | no depletion | half-lives t 1/2 ± s(t 1/2) ([5]; AAP (ammonium acetate buffer 100 mM) pH 10.2): did not show any significant signal depletion; also recorded: no depletion; half-lives t 1/2 ± s(t 1/2) [5, 14]: no depletion |
| C=C(C#N)C(=O)OCC [F1, ethyl 2-cyanoacrylate] |  | 2.22 ± 0.33 | 0.35 | 1.6 ± 0.2% | 40.2% and 40.2 ± 1.9% | 98.3 ± 0.1% |  |  |  |  |  | k Gly ± s(k Gly), second-order rate constant [2, 15]: 10886 L mol^–1 min^–1 and 10886 ± 1589 ^c L mol^–1 min^–1; log k Gly [2, 15]: 4.02 and 4.04; free (reactive) fraction, not bound to water ([2]; in the Gly-pNA chemoassay setup): < 0.1% |
| C=C(C)C(=O)OC [F5, methyl methacrylate] |  |  |  | 0.7 ± 0.3% | 2.6 ± 1.3% |  |  | 3060 ± 625 | 1880 ± 488 | 10.6 ± 0.8 | no depletion |  |
| Clc1nc(Cl)nc(Cl)n1 [E2, 2,4,6-trichloro-1,3,5-triazine] |  | ≥1424 ± 364 |  | 91.1 ± 1.1% | 100% | 100% | 1.14 ± 0.05 | < 1 | < 1 | 99.7 ± 0.6 |  |  |
